Results as given in ChEMBL document CHEMBL2429768, “Eco-friendly synthesis and antimicrobial activities of substituted-5-(1H-indol-3-yl)methylene)-2,2-dimethyl-1,3-dioxane-4,6-dione derivatives” (2013).
Values after ≈ are worked out from the molar mass of the structure shown.

Legend:
Type in all cases: functional
Aspergillus flavus [1] = assay: Antifungal activity against Aspergillus flavus after 72 hrs by agar well diffusion method
Bacillus subtilis [2] = assay: Antibacterial activity against Bacillus subtilis at 100 ug/ml after 24 hrs by agar well diffusion method; settings: read-out: DIZ
Rhizoctonia solani [3] = assay: Antifungal activity against Rhizoctonia solani at 50 ug/ml after 72 hrs by agar well diffusion method; settings: read-out: DIZ
Aspergillus flavus [4] = assay: Antifungal activity against Aspergillus flavus at 500 ug/ml after 72 hrs by agar well diffusion method; settings: read-out: DIZ
Bacillus subtilis [5] = assay: Antibacterial activity against Bacillus subtilis after 24 hrs by agar well diffusion method
Aspergillus niger [6] = assay: Antifungal activity against Aspergillus niger at 200 ug/ml after 72 hrs by agar well diffusion method; settings: read-out: DIZ
Aspergillus niger [7] = assay: Antifungal activity against Aspergillus niger at 50 ug/ml after 72 hrs by agar well diffusion method; settings: read-out: DIZ
Bacillus subtilis [8] = assay: Antibacterial activity against Bacillus subtilis at 200 ug/ml after 24 hrs by agar well diffusion method; settings: read-out: DIZ
Klebsiella pneumoniae [9] = assay: Antibacterial activity against Klebsiella pneumoniae at 500 ug/ml after 24 hrs by agar well diffusion method; settings: read-out: DIZ
Aspergillus flavus [10] = assay: Antifungal activity against Aspergillus flavus at 50 ug/ml after 72 hrs by agar well diffusion method; settings: read-out: DIZ
Staphylococcus aureus [11] = assay: Antibacterial activity against Staphylococcus aureus ATCC 6538 at 50 ug/ml after 24 hrs by agar well diffusion method; settings: ATCC 6538, 24 h, read-out: DIZ
Aspergillus niger [12] = assay: Antifungal activity against Aspergillus niger after 72 hrs by agar well diffusion method
Escherichia coli [13] = assay: Antibacterial activity against Escherichia coli ATCC 8739 at 500 ug/ml after 24 hrs by agar well diffusion method; settings: ATCC 8739, 24 h, read-out: DIZ
Staphylococcus aureus [14] = assay: Antibacterial activity against Staphylococcus aureus ATCC 6538 after 24 hrs by agar well diffusion method; settings: ATCC 6538, 24 h
Fusarium oxysporum [15] = assay: Antifungal activity against Fusarium oxysporum at 200 ug/ml after 72 hrs by agar well diffusion method; settings: read-out: DIZ
Aspergillus niger [16] = assay: Antifungal activity against Aspergillus niger at 500 ug/ml after 72 hrs by agar well diffusion method; settings: read-out: DIZ
Aspergillus flavus [17] = assay: Antifungal activity against Aspergillus flavus at 200 ug/ml after 72 hrs by agar well diffusion method; settings: read-out: DIZ
Escherichia coli [18] = assay: Antibacterial activity against Escherichia coli ATCC 8739 at 300 ug/ml after 24 hrs by agar well diffusion method; settings: ATCC 8739, 24 h, read-out: DIZ
Aspergillus niger [19] = assay: Antifungal activity against Aspergillus niger at 100 ug/ml after 72 hrs by agar well diffusion method; settings: read-out: DIZ
Bacillus subtilis [20] = assay: Antibacterial activity against Bacillus subtilis at 500 ug/ml after 24 hrs by agar well diffusion method; settings: read-out: DIZ
Klebsiella pneumoniae [21] = assay: Antibacterial activity against Klebsiella pneumoniae at 100 ug/ml after 24 hrs by agar well diffusion method; settings: read-out: DIZ
Klebsiella pneumoniae [22] = assay: Antibacterial activity against Klebsiella pneumoniae at 200 ug/ml after 24 hrs by agar well diffusion method; settings: read-out: DIZ
Staphylococcus aureus [23] = assay: Antibacterial activity against Staphylococcus aureus ATCC 6538 at 100 ug/ml after 24 hrs by agar well diffusion method; settings: ATCC 6538, 24 h, read-out: DIZ
Fusarium oxysporum [24] = assay: Antifungal activity against Fusarium oxysporum at 100 ug/ml after 72 hrs by agar well diffusion method; settings: read-out: DIZ
Escherichia coli [25] = assay: Antibacterial activity against Escherichia coli ATCC 8739 at 200 ug/ml after 24 hrs by agar well diffusion method; settings: ATCC 8739, 24 h, read-out: DIZ
Rhizoctonia solani [26] = assay: Antifungal activity against Rhizoctonia solani at 500 ug/ml after 72 hrs by agar well diffusion method; settings: read-out: DIZ
Staphylococcus aureus [27] = assay: Antibacterial activity against Staphylococcus aureus ATCC 6538 at 300 ug/ml after 24 hrs by agar well diffusion method; settings: ATCC 6538, 24 h, read-out: DIZ
Rhizoctonia solani [28] = assay: Antifungal activity against Rhizoctonia solani at 300 ug/ml after 72 hrs by agar well diffusion method; settings: read-out: DIZ
Rhizoctonia solani [29] = assay: Antifungal activity against Rhizoctonia solani after 72 hrs by agar well diffusion method
Klebsiella pneumoniae [30] = assay: Antibacterial activity against Klebsiella pneumoniae at 50 ug/ml after 24 hrs by agar well diffusion method; settings: read-out: DIZ
Escherichia coli [31] = assay: Antibacterial activity against Escherichia coli ATCC 8739 at 100 ug/ml after 24 hrs by agar well diffusion method; settings: ATCC 8739, 24 h, read-out: DIZ
Fusarium oxysporum [32] = assay: Antifungal activity against Fusarium oxysporum after 72 hrs by agar well diffusion method
Rhizoctonia solani [33] = assay: Antifungal activity against Rhizoctonia solani at 100 ug/ml after 72 hrs by agar well diffusion method; settings: read-out: DIZ
Klebsiella pneumoniae [34] = assay: Antibacterial activity against Klebsiella pneumoniae at 300 ug/ml after 24 hrs by agar well diffusion method; settings: read-out: DIZ
Staphylococcus aureus [35] = assay: Antibacterial activity against Staphylococcus aureus ATCC 6538 at 200 ug/ml after 24 hrs by agar well diffusion method; settings: ATCC 6538, 24 h, read-out: DIZ
Klebsiella pneumoniae [36] = assay: Antibacterial activity against Klebsiella pneumoniae after 24 hrs by agar well diffusion method
Staphylococcus aureus [37] = assay: Antibacterial activity against Staphylococcus aureus ATCC 6538 at 500 ug/ml after 24 hrs by agar well diffusion method; settings: ATCC 6538, 24 h, read-out: DIZ
Fusarium oxysporum [38] = assay: Antifungal activity against Fusarium oxysporum at 300 ug/ml after 72 hrs by agar well diffusion method; settings: read-out: DIZ
Aspergillus niger [39] = assay: Antifungal activity against Aspergillus niger at 300 ug/ml after 72 hrs by agar well diffusion method; settings: read-out: DIZ
Escherichia coli [40] = assay: Antibacterial activity against Escherichia coli ATCC 8739 after 24 hrs by agar well diffusion method; settings: ATCC 8739, 24 h
Fusarium oxysporum [41] = assay: Antifungal activity against Fusarium oxysporum at 50 ug/ml after 72 hrs by agar well diffusion method; settings: read-out: DIZ
Escherichia coli [42] = assay: Antibacterial activity against Escherichia coli ATCC 8739 at 50 ug/ml after 24 hrs by agar well diffusion method; settings: ATCC 8739, 24 h, read-out: DIZ
Rhizoctonia solani [43] = assay: Antifungal activity against Rhizoctonia solani at 200 ug/ml after 72 hrs by agar well diffusion method; settings: read-out: DIZ
Aspergillus flavus [44] = assay: Antifungal activity against Aspergillus flavus at 300 ug/ml after 72 hrs by agar well diffusion method; settings: read-out: DIZ
Fusarium oxysporum [45] = assay: Antifungal activity against Fusarium oxysporum at 500 ug/ml after 72 hrs by agar well diffusion method; settings: read-out: DIZ
Bacillus subtilis [46] = assay: Antibacterial activity against Bacillus subtilis at 300 ug/ml after 24 hrs by agar well diffusion method; settings: read-out: DIZ
Bacillus subtilis [47] = assay: Antibacterial activity against Bacillus subtilis at 50 ug/ml after 24 hrs by agar well diffusion method; settings: read-out: DIZ
Aspergillus flavus [48] = assay: Antifungal activity against Aspergillus flavus at 100 ug/ml after 72 hrs by agar well diffusion method; settings: read-out: DIZ

Question: Which results are given for `Cn1cc(C=C2C(=O)OC(C)(C)OC2=O)c2ccccc21`?
Answer: MIC (Aspergillus flavus [1]): 40 µg/mL (≈ 140 µM); zone of inhibition at 100 µg/mL (Bacillus subtilis [2]): 9 mm; zone of inhibition at 50 µg/mL (Rhizoctonia solani [3]): 7 mm; zone of inhibition at 500 µg/mL (Aspergillus flavus [4]): 23 mm; MIC (Bacillus subtilis [5]): 30 µg/mL (≈ 105 µM); zone of inhibition at 200 µg/mL (Aspergillus niger [6]): 14 mm; zone of inhibition at 50 µg/mL (Aspergillus niger [7]): 6 mm; zone of inhibition at 200 µg/mL (Bacillus subtilis [8]): 12 mm; zone of inhibition at 500 µg/mL (Klebsiella pneumoniae [9]): 31 mm; zone of inhibition at 50 µg/mL (Aspergillus flavus [10]): 4 mm; zone of inhibition at 50 µg/mL (Staphylococcus aureus [11]): 6 mm; MIC (Aspergillus niger [12]): 40 µg/mL (≈ 140 µM); zone of inhibition at 500 µg/mL (Escherichia coli [13]): 30 mm; MIC (Staphylococcus aureus [14]): 25 µg/mL (≈ 87.6 µM); zone of inhibition at 200 µg/mL (Fusarium oxysporum [15]): 16 mm; zone of inhibition at 500 µg/mL (Aspergillus niger [16]): 25 mm; zone of inhibition at 200 µg/mL (Aspergillus flavus [17]): 12 mm; zone of inhibition at 300 µg/mL (Escherichia coli [18]): 20 mm; zone of inhibition at 100 µg/mL (Aspergillus niger [19]): 10 mm; zone of inhibition at 500 µg/mL (Bacillus subtilis [20]): 23 mm; zone of inhibition at 100 µg/mL (Klebsiella pneumoniae [21]): 14 mm; zone of inhibition at 200 µg/mL (Klebsiella pneumoniae [22]): 18 mm; zone of inhibition at 100 µg/mL (Staphylococcus aureus [23]): 10 mm; zone of inhibition at 100 µg/mL (Fusarium oxysporum [24]): 12 mm; zone of inhibition at 200 µg/mL (Escherichia coli [25]): 16 mm; zone of inhibition at 500 µg/mL (Rhizoctonia solani [26]): 29 mm; zone of inhibition at 300 µg/mL (Staphylococcus aureus [27]): 18 mm; zone of inhibition at 300 µg/mL (Rhizoctonia solani [28]): 21 mm; MIC (Rhizoctonia solani [29]): 35 µg/mL (≈ 123 µM); zone of inhibition at 50 µg/mL (Klebsiella pneumoniae [30]): 9 mm; zone of inhibition at 100 µg/mL (Escherichia coli [31]): 13 mm; MIC (Fusarium oxysporum [32]): 35 µg/mL (≈ 123 µM); zone of inhibition at 100 µg/mL (Rhizoctonia solani [33]): 12 mm; zone of inhibition at 300 µg/mL (Klebsiella pneumoniae [34]): 23 mm; zone of inhibition at 200 µg/mL (Staphylococcus aureus [35]): 14 mm; MIC (Klebsiella pneumoniae [36]): 15 µg/mL (≈ 52.6 µM); zone of inhibition at 500 µg/mL (Staphylococcus aureus [37]): 25 mm; zone of inhibition at 300 µg/mL (Fusarium oxysporum [38]): 21 mm; zone of inhibition at 300 µg/mL (Aspergillus niger [39]): 18 mm; MIC (Escherichia coli [40]): 15 µg/mL (≈ 52.6 µM); zone of inhibition at 50 µg/mL (Fusarium oxysporum [41]): 7 mm; zone of inhibition at 50 µg/mL (Escherichia coli [42]): 8 mm; zone of inhibition at 200 µg/mL (Rhizoctonia solani [43]): 16 mm; zone of inhibition at 300 µg/mL (Aspergillus flavus [44]): 15 mm; zone of inhibition at 500 µg/mL (Fusarium oxysporum [45]): 29 mm; zone of inhibition at 300 µg/mL (Bacillus subtilis [46]): 15 mm; zone of inhibition at 50 µg/mL (Bacillus subtilis [47]): 4 mm; zone of inhibition at 100 µg/mL (Aspergillus flavus [48]): 9 mm
